{"source": "patent US10813981B2", "about": "“Saposin B binds the lipofuscin bisretinoid A2E and prevents its enzymatic and photo degradation” (Syracuse University, priority 2017, dated 2020)", "key": {"[1]": {"target": "T1, retinoid isomerohydrolase (RPE65 isomerohydrolase) (Homo sapiens, UniProt Q16518)", "T1 sequence (Q16518 1-533)": "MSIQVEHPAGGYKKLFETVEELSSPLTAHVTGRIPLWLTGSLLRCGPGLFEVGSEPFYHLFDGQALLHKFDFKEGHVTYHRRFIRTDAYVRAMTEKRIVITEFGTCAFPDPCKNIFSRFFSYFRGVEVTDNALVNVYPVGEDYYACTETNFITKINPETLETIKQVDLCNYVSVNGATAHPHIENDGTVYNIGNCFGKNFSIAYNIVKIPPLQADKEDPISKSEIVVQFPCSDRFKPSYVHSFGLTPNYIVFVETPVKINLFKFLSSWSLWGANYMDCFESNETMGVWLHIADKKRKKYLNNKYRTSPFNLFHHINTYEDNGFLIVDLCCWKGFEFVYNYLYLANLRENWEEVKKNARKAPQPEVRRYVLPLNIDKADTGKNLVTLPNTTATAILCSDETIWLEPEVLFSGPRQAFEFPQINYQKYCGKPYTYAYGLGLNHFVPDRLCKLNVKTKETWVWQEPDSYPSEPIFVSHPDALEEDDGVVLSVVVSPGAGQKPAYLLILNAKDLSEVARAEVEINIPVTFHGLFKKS", "conditions": "non-palmitoylated, soluble, cytoplasmic RPE65; read-out: KD, direct binding to RPE65; cited from earlier work"}, "[2]": {"tested_on": "retinoic acid receptor (RAR)", "conditions": "cited from earlier work"}, "[3]": {"assay": "Blue-light photo-degradation of A2E", "format": "physicochemical", "conditions": "bound to SapB (2 sapB:1 A2E) versus free; 30 min, pH 5.5", "excerpt": "We screened A2E photostability to blue light, whether in its free form or complexed to SapB (2 sapB:1 A2E) (see supplementary materials for details) with and without 1% DMSO (a known facilitator of blue induced photobleaching). […] The fact that SapB might play a role in mitigating photo-bleaching and providing a source of subsequent fluorescence is an interesting possibility, particularly in light of recent studies by Yamamoto et al. showing that SapB could regulate CoQ10 movement/levels within HepG2 cells.\nIn order to further examine the protective effects of sapB towards A2E in terms of photooxidation, additional ultraviolet spectroscopy was performed on a Varian Cary 50B Spectrophotomer. The stock solutions were prepared as follows: SapB in 50 mM phosphate buffer, pH 5.5 and A2E in 100% methanol or 100% DMSO. The samples were exposed to blue light in five-minute increments and monitored after each exposure for a total of 30 min. The data was further analyzed with OriginLab software version 8. The final product was examined via mass spectroscopy to identify products as a result of blue light exposure. Evidence for photooxidized species are clearly indicated."}}, "data": [{"smiles": "CC(C=CC1=C(C)CCCC1(C)C)=CC=CC(C)=Cc1cc(C=CC=C(C)C=CC2=C(C)CCCC2(C)C)cc[n+]1CCO", "note": "[A2E, N-retinylidene-N-retinylethanolamine]", "values": [{"measurement": "Kd", "setting": "[1]", "value": 250, "unit": "nM"}, {"measurement": "ligand activity at RAR", "setting": "[2]", "value": "endogenous ligand"}, {"measurement": "A2E degradation over time under blue light (decline in slopes)", "setting": "[3]", "value": "significantly reduced"}]}]}
